We go through 2 substances from patent publication US5785948A, “Metal chelate forming peptides and use thereof represented by three amino acid sequences” (Nihon Medi-Physics Co., Ltd., priority 1994, dated 1998).

One assay relates to inflammation site. Conditions: S. aureus inflammation rat. The procedure: Staphylococcus aureus 10^8 cells were suspended in 1 ml of physiological saline, and 100 μl of the suspension was intramuscularly administered to SD rats weighing about 220 g at the right calf. […] Thirty and 120 minutes after the peptide was injected, the animal was imaged with a gamma camera. Regions of interest were selected from the obtained image to determine a ratio T/B of the radioactivity in inflammation site (T) to the radioactivity in normal site (B).

The subject of another assay is Tumor cells HEp2. Nature of the assay: Imaging of tumor in HEp2 tumor-bearing nude mouse (gamma camera, organ radioactivity). Type of assay: in vivo, BALB/C nude mouse. Conditions: twenty minutes after injection. The procedure: Tumor cells HEp2 (5×10^6 cells, Human Epidermoid Carcinoma; ATCC No. CCL 23) were suspended in 1.0 ml of medium (Minimum essential medium (Eagle's) with Earle's BSS, 90% fetal bovine serum, 10%), and 100 μl of the suspension was subcutaneously injected to BALB/C nude mouse (6 weeks age) at the body side. […] Five and 20 minutes after the injection, the animal was imaged with a gamma camera.
Immediately after the imaging, the animal was sacrificed and examined for the distribution of the radioactivity in each organ using NaI single channel analyzer to determine a ratio of the radioactivity in tumor site to the radioactivity in muscle site (T/B ratio).

Where no end group is shown, it is not given here.

Tc-99m-KYCGGKTKPREQQYNSTYRVV-NH2: the “T/B ratio (radioactivity in inflammation site to radioactivity in normal site)” value with inflammation site (i.v. tail vein, regions of interest of image, n=6) is on record as 3.26±0.18. In the assay with inflammation site (imaged 30 and 120 minutes after injection), the “Imaging of inflammation site (gamma camera)” value was “clearly imaged”.

Turning to “Tc-99m-KYCAREPPTRTNAYWGQG (also: Tc-99m label) [Tc-99m-labeled peptide containing KYC at the N-terminus, for tumor imaging]”, the “T/B ratio (radioactivity in tumor site to radioactivity in muscle site)” value in the assay with Tumor cells HEp2 (i.v. tail vein, n=3) is 4.50±0.71. Also, the “Imaging of tumor site (gamma camera)” value in the assay with Tumor cells HEp2 is “clearly imaged”.
